Earlier results on 4 compounds are cited in patent US20020010550A1, “PHARMACOKINETIC-BASED DRUG DESIGN TOOL AND METHOD” (priority 1998, published 2002).

Like-named read-outs stand apart in the source and are kept apart here.

Series [1] has as its system rabbit intestinal tissue (duodenum, jejunum, ileum, colon). The conditions noted are these: donor concentration given with each compound.
For series [2] the following is noted: human.
The conditions of series [3]: Plasma Kinetics.
In another series the test system is intestinal transport. The settings on record: permeability standards.

With `C[C@]12CCC(=O)C=C1CC[C@@H]1[C@@H]2[C@@H](O)C[C@@]2(C)[C@H]1CC[C@]2(O)C(=O)CO` [hydrocortisone], the Pe was 3.85 ×10⁻⁶ cm/s in series [1] (Colon), 0.3 ×10⁻⁶ cm/s in series [1] (Duodenum), 2.91 ×10⁻⁶ cm/s in series [1] (Ileum) and 1.31 ×10⁻⁶ cm/s in series [1] (Jejunum).
For the compound `Nc1nc2c(ncn2COC(CO)CO)c(=O)[nH]1.[Na]` [Gancyclovir, 9-(1,3-dihydroxy-2-propoxymethyl)guanine, monosodium salt], the “bioavailability of fasted patients in clinical trials” value in series [2] (fasted, oral) is 3-20%. For the same compound, in series [2] (in vivo), the absorption result is recorded as “poorly absorbed” and the in vivo biotransformation entry is reported as “no in vivo biotransformation”. In addition, in series [3], the “Fluid Volume” value is reported as 76,800 ml, the k12 is listed as 0.839, the k21 is given as 0.670 and the kelim is recorded as 0.161.
For `O=C[C@H](O)[C@@H](O)[C@H](O)[C@H](O)CO` [D-glucose], the Transport mechanism entry with intestinal transport is given as “Carrier-mediated Influx”. In addition, the Pe was 9.28 ×10⁻⁶ cm/s in series [1] (Colon), 4.55 ×10⁻⁶ cm/s in series [1] (Duodenum), 14.5 ×10⁻⁶ cm/s in series [1] (Ileum) and 10.2 ×10⁻⁶ cm/s in series [1] (Jejunum).
Regarding `OC[C@@H](O)[C@@H](O)[C@H](O)[C@H](O)CO` [mannitol], the Transport mechanism entry in the series with intestinal transport is recorded as “Passive Paracellular”. The Pe in series [1] (Colon) is 5.53 ×10⁻⁶ cm/s; in series [1] (Duodenum), 1.73 ×10⁻⁶ cm/s; in series [1] (Ileum), 4.02 ×10⁻⁶ cm/s; in series [1] (Jejunum), 3.54 ×10⁻⁶ cm/s.
